Measured values: ChEMBL document CHEMBL3885881, “DrugMatrix”

Species: Rattus norvegicus
Test: DrugMatrix - Regimen: Daily Repeat
Assay type: toxicity, organism-based, Sprague-Dawley
Parameters: regimen Daily Repeat, gender Male, age 6-8 weeks
Settings: in vivo, po, 500 mg/kg, route oral GAVAGE, dose level High, vehicle .5 % CMC; for ABSOLUTE BASOPHIL / ABSOLUTE EOSINOPHIL / ABSOLUTE LYMPHOCYTE / ABSOLUTE MONOCYTE / ABSOLUTE SEGMENTED NEUTROPHIL / BASOPHIL / EOSINOPHIL / ERYTHROCYTE COUNT / HEMATOCRIT / HEMOGLOBIN / LEUKOCYTE COUNT / LYMPHOCYTE / MEAN CORPUSCULAR HEMOGLOBIN / MEAN CORPUSCULAR HEMOGLOBIN CONCENTRATION / MEAN CORPUSCULAR VOLUME / MONOCYTE / NEUTROPHIL / NUCLEATED RED BLOOD CELLS / PLATELET COUNT: tissue Blood
[1] = 72 h, tissue Plasma, time 3 day
[2] = 120 h, tissue Plasma, time 5 day

Clc1ccccc1 [CHLOROBENZENE]
ABSOLUTE BASOPHIL (72 h, time 3 day): 0 CELLS/uL | ABSOLUTE EOSINOPHIL (72 h, time 3 day): 274.33 CELLS/uL | ABSOLUTE LYMPHOCYTE (72 h, time 3 day): 9310 CELLS/uL | ABSOLUTE MONOCYTE (72 h, time 3 day): 211.33 CELLS/uL | ABSOLUTE SEGMENTED NEUTROPHIL (72 h, time 3 day): 771 CELLS/uL | BASOPHIL (72 h, time 3 day): 0% | EOSINOPHIL (72 h, time 3 day): 2.33% | ERYTHROCYTE COUNT (72 h, time 3 day): 6.63 x10E6/uL | HEMATOCRIT (72 h, time 3 day): 39.23% | HEMOGLOBIN (72 h, time 3 day): 14.07 G/DL | LEUKOCYTE COUNT (72 h, time 3 day): 10.57 x10E3/uL | LYMPHOCYTE (72 h, time 3 day): 88.33% | MEAN CORPUSCULAR HEMOGLOBIN (72 h, time 3 day): 21.2 pg | MEAN CORPUSCULAR HEMOGLOBIN CONCENTRATION (72 h, time 3 day): 35.9 G/DL | MEAN CORPUSCULAR VOLUME (72 h, time 3 day): 59.17 fL | MONOCYTE (72 h, time 3 day): 2% | NEUTROPHIL (72 h, time 3 day): 7.33% | NUCLEATED RED BLOOD CELLS (72 h, time 3 day): 0 /100WBC | PLATELET COUNT (72 h, time 3 day): 768.67 x10E3/uL | ALANINE AMINOTRANSFERASE [1]: 64 u/L | ALBUMIN [1]: 4.1 G/DL | ALKALINE PHOSPHATASE [1]: 361.67 u/L | ASPARTATE AMINOTRANSFERASE [1]: 100.33 u/L | BLOOD UREA NITROGEN [1]: 17.67 mg/dL | CARBON DIOXIDE [1]: 26.33 mmol/L | CHLORIDE [1]: 103.33 MEQ/L | CHOLESTEROL [1]: 86.67 mg/dL | CREATININE [1]: 0.21 mg/dL | GLUCOSE [1]: 184.33 mg/dL | LACTATE DEHYDROGENASE [1]: 325.33 u/L | LIPASE [1]: 9.67 u/L | PHOSPHORUS [1]: 14.17 mg/dL | POTASSIUM [1]: 5.77 MEQ/L | SODIUM [1]: 147.63 MEQ/L | TOTAL BILIRUBIN [1]: 0.17 mg/dL | TOTAL PROTEIN [1]: 5.83 G/DL | URIC ACID [1]: 2.13 mg/dL | ABSOLUTE BASOPHIL (120 h, time 5 day): 0 CELLS/uL | ABSOLUTE EOSINOPHIL (120 h, time 5 day): 83.67 CELLS/uL | ABSOLUTE LYMPHOCYTE (120 h, time 5 day): 5790.33 CELLS/uL | ABSOLUTE MONOCYTE (120 h, time 5 day): 83 CELLS/uL | ABSOLUTE SEGMENTED NEUTROPHIL (120 h, time 5 day): 376.33 CELLS/uL | BASOPHIL (120 h, time 5 day): 0% | EOSINOPHIL (120 h, time 5 day): 1.33% | ERYTHROCYTE COUNT (120 h, time 5 day): 6.34 x10E6/uL | HEMATOCRIT (120 h, time 5 day): 37.73% | HEMOGLOBIN (120 h, time 5 day): 13.57 G/DL | LEUKOCYTE COUNT (120 h, time 5 day): 6.33 x10E3/uL | LYMPHOCYTE (120 h, time 5 day): 91.33% | MEAN CORPUSCULAR HEMOGLOBIN (120 h, time 5 day): 21.37 pg | MEAN CORPUSCULAR HEMOGLOBIN CONCENTRATION (120 h, time 5 day): 35.9 G/DL | MEAN CORPUSCULAR VOLUME (120 h, time 5 day): 59.6 fL | MONOCYTE (120 h, time 5 day): 1.33% | NEUTROPHIL (120 h, time 5 day): 6% | NUCLEATED RED BLOOD CELLS (120 h, time 5 day): 0 /100WBC | PLATELET COUNT (120 h, time 5 day): 998.67 x10E3/uL | ALANINE AMINOTRANSFERASE [2]: 58 u/L | ALBUMIN [2]: 4.13 G/DL | ALKALINE PHOSPHATASE [2]: 325 u/L | ASPARTATE AMINOTRANSFERASE [2]: 91 u/L | BLOOD UREA NITROGEN [2]: 16 mg/dL | CARBON DIOXIDE [2]: 31.67 mmol/L | CHLORIDE [2]: 102.67 MEQ/L | CHOLESTEROL [2]: 68 mg/dL | CREATININE [2]: 0.19 mg/dL | GLUCOSE [2]: 160.67 mg/dL | LACTATE DEHYDROGENASE [2]: 181.33 u/L | LIPASE [2]: 9.33 u/L | PHOSPHORUS [2]: 11.9 mg/dL | POTASSIUM [2]: 5.74 MEQ/L | SODIUM [2]: 150.1 MEQ/L | TOTAL BILIRUBIN [2]: 0.2 mg/dL | TOTAL PROTEIN [2]: 6.07 G/DL
